Like-named read-outs stand apart in the source and are kept apart here.
Assays:
[1] = test system: Non-Obese Diabetic (NOD/LtJ) mice; assay: Diabetes incidence (serum glucose >300 mg/dL) in vitamin D-deficient NOD mice given 1,25(OH)2D3 in the diet; format: in vivo, mouse; settings: for incidence of diabetes: 50 ng/mouse/day in diet from weaning, at termination of experiment
From the text: Non-Obese Diabetic (NOD/LtJ) mice were purchased from The Jackson laboratory (Bar Harbor, Me. 04609). Mice were maintained on highly purified vitamin D-deficient diet containing 0.47% calcium and 0.3% phosphorus supplemented with vitamins A, E, and K. This diet was solidified by the addition of molten agar to a powdered diet. To obtain vitamin D-deficiency in the offspring, pregnant mothers were maintained on the vitamin D-deficient diet. Then, offspring, once weaned, were further maintained on the vitamin D-deficient diet. […] Treatment with 1,25(OH)2D3 was started at weaning. Animals were bled from the extraorbital sinus with a glass pipette after a four hour fast at 2 pm once a week. Serum glucose was determined using the Trinder glucose oxidase enzyme assay kit purchased from Sigma (St. Louis, Mo.). 5 μL of NOD serum was used as an unknown and analyzed spectrophotometrically at 505 nm against a known glucose standard (Sigma, St. Louis, Mo.). An animal was considered diabetic if its serum glucose was greater than 300 mg/dL.

[2] = mouse, in vivo
Method: (§1) Mice were weaned at 21 days and placed on the appropriate diets. Injections and experimental diets were administered every 48 hours. Control diets were fed 3 times/week. Every 10 days beginning at day 30 and ending on day 170, mice were weighed and bled for serum calcium determination. Beginning on day 70, mice were tested for glucosuria 3 times/week. If a mouse tested positive, it was fasted for 4 hours and bled to measure serum glucose levels. If the fasting serum glucose level was greater than 300 mg%, the mouse was considered diabetic. All mice remaining at 200 days were sacrificed.

[3] = test system: female NOD/LtJ mice; assay: Injection vs. Dietary Study: diabetic incidence at day 200; format: in vivo, mouse; settings: injection of 50 μg/day (so in the source)
[4] = test system: female NOD/LtJ mice; assay: as above; format: in vivo, mouse
Method: NOD/LtJ mice were fed control diets (purified Diet 11 as described in Suda, et al., J. Nutr. 100:1049-1052 1970, 0.47% calcium +vitamins A, D, E and K) or experimental diets (control +10, 25 or 50 ng of 1,25D3/mouse/day).
Control (vehicle) animals were injected with 50 μL sterile peanut oil while the experimental animals were injected with 5 μg/kg 1,25D3/mouse/2 days in sterile peanut oil.
as §1

[5] = Serum calcium and hypercalcemia in NOD mice given dietary 1,25(OH)2D3 (study A); format: in vivo, mouse; settings: for serum calcium: 50 ng each day
From the text: Non-Obese Diabetic (NOD/LtJ) mice were purchased from The Jackson laboratory (Bar Harbor, Me. 04609). Mice were maintained on highly purified vitamin D-deficient diet containing 0.47% calcium and 0.3% phosphorus supplemented with vitamins A, E, and K. This diet was solidified by the addition of molten agar to a powdered diet. To obtain vitamin D-deficiency in the offspring, pregnant mothers were maintained on the vitamin D-deficient diet. Then, offspring, once weaned, were further maintained on the vitamin D-deficient diet. […] Animals were bled from the extraorbital sinus with a glass pipette after a four hour fast at 2 pm once a week.
Blood was immediately centrifuged to obtain serum. Serum was diluted in 0.1% lanthanum chloride, and serum calcium was measured by atomic absorption using a Perkin-Elmer model 3110 atomic absorption spectrometer.

[6] = test system: NOD/LtJ mice; assay: Diabetes incidence by 200 days with 1,25(OH)2D3 diet started at weaning, 8 weeks or 100 days (study C); format: in vivo, mouse
Method: Animals: Mice from an in-house breeding colony of NOD/LtJ mice (Jackson Laboratory) were used for this study. Female mice were randomly weaned into each dietary group. 24 mice were used per group.
Diet Preparation: Experimental purified diets were prepared containing 0.47% calcium supplemented with 25 IU vitamin D3 (Diet 11). […] All purified powder diets were solidified by mixing with molten agar to ensure animals consumed the exact dose of 1,25(OH)2D3. Each mouse was administered 3.5 grams of powder diet per day.
Diet Administration: Experimental purified diets were administered beginning at weaning (3 weeks of age) until 200 days of age. 1,25(OH)2D3-containing diet was administered beginning at weaning (group 2), beginning at 8 weeks of age (group 3), or beginning at 100 days of age (group 4).
Serum glucose determination: Serum glucose was measured using an enzymatic colorimetric assay (Glucose liquicolor, Stanbio, Boerne, Tex.).
Disease analysis: Urine samples were obtained twice weekly from animals older than 70 days of age and tested for urinary glucose using Diastix (Bayer, Elkhart, Ind.). Serum glucose was measured from animals with urine glucose readings >250 mg/dL. Animals with multiple serum glucose values >300 mg/dL at least 24 hours apart were considered diabetic and sacrificed via CO2 asphyxiation. All remaining animals were sacrificed at 200 days of age.

[7] = test system: NOD mice; settings: cited from earlier work; for total diabetes incidence at 200 days: control 86%
[8] = administered from 100 to 200 days of age

## C=C1/C(=C\C=C2/CCC[C@]3(C)[C@@H]([C@H](C)CCCC(C)(C)O)CC[C@@H]23)C[C@@H](O)C[C@@H]1O [1,25(OH)2D3, 1α,25-dihydroxyvitamin D3]
[1]; 200 ng group, at any time
  serum glucose values: ≤ 300 mg/dL
[1]; female NOD mice
  incidence of diabetes: 7.69%
[1]; male NOD mice
  incidence of diabetes: 7.14%
[2]
  hypercalcemia: clearly caused hypercalcemia
[3]
  effect of injection on incidence of diabetes: increased rather than decreased the incidence of diabetes
[4]; 10 ng diet, day 200
  db %=: 11%
[4]; 10 ng diet, day 200, n=9
  db n=: 1
[4]; 25 ng diet, day 200
  db %=: 22%
[4]; 25 ng diet, day 200, n=9
  db n=: 2
[4]; 50 ng diet, day 200
  db %=: 25%
[4]; 50 ng diet, day 200, n=8
  db n=: 2
[4]; in the diet (oral treatment), day 200
  diabetes incidence: 10-25%
[4]; injected 5 μg/kg/2 days in peanut oil, day 200
  db %=: 71%
[4]; injected 5 μg/kg/2 days in peanut oil, day 200, n=7
  db n=: 5
[4]; injected, day 200
  incidence of diabetes: over 70%
[5]; 200 ng group
  serum calcium levels (evidence of hypercalcemia): ≥ 12 mg/dL
[5]; females, at 40 days
  serum calcium: 10.50 ± 1.53 mg/dL
[5]; females, at 150 days of age
  serum calcium: 13.10 ± 1.01 mg/dL
[5]; females, 50 ng, by 150 days of age
  number of NOD females died of hypercalcemia: 7
[5]; males, at 40 days
  serum calcium: 9.22 ± 0.93 mg/dL
[5]; males, at 150 days of age
  serum calcium: 12.78 ± 1.11 mg/dL
[6]; 50 ng in diet after 100 days of age (group 4), 23 animals
  became diabetic by 200 days of age: 8.7%
[6]; 50 ng in diet beginning at 8 weeks of age (group 3)
  animals that became diabetic by 200 days of age: 0 of 24
[6]; 50 ng in diet from weaning (group 2), 24 mice
  became diabetic by 200 days of age: 4.2%
[7]; [8]
  diabetic incidence: same diabetic incidence as the control group
  onset of diabetes: appeared to be slightly delayed
[7]; female NOD mice, injection of 5 μg/kg, control 56%
  incidence of diabetes: 8%
[7]; mouse, in vivo
  bone calcium: reduced
[7]; treated only until 100 days of age
  total diabetes incidence at 200 days: about 35%
[7]; treated until 200 days of age
  total diabetes incidence at 200 days: 13%

Source: patent publication US20060079490A1, “Method of treatment of type I diabetes” (priority 2001, published 2006)
